This note sets out measurements from patent US6635641B2 (Agouron Pharmaceuticals, Inc., priority 2000, dated 2003).

pIC50, pKi: −log10 of the molar value. Read-outs that look alike come from different tables or passages of the source.

Data set [1] concerns the target T1, LCK tyrosine kinase (Homo sapiens, UniProt P06239, C224D/P223M).
T1 construct: starting from amino acid residue 223 to the end of the protein at residue 509; made in house; host or cells: insect cells
Briefly: LCK spectrophotometric assay.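 As to all read-outs here: recombinant LCK kinase activity on poly(E4Y1), ADP formation coupled through PK/LDH to NADH oxidation, followed as absorbance loss at 340 nm.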 Format: biochemical. The note with it: for pKi: read-out: LCK-P Ki.
Method: The production of ADP from ATP that accompanies phosphoryl transfer was coupled to oxidation of NADH using phosphoenolpyruvate (PEP) and a system having pyruvate kinase (PK) and lactic dehydrogenase (LDH). The oxidation of NADH was monitored by following the decrease of absorbance at 340 nm (e340=6.22 cm^−1 mM^−1) using a Beckman DU 650 spectrophotometer. Assay conditions for phosphorylated VEGF-R2Δ50 (indicated as FLVK-P in the tables below) were the following: 1 mM PEP; 250 μM NADH; 50 units of LDH/mL; 20 units of PK/mL; 5 mM DTT; 5.1 mM poly(E4Y1); 1 mM ATP; and 25 mM MgCl2 in 200 mM Hepes, pH 7.5. Assay conditions for unphosphorylated VEGF-R2Δ50 (indicated as FLVK in the tables) were the following: 1 mM PEP; 250 μM NADH; 50 units of LDH/mL; 20 units of PK/mL; 5 mM DTT; 20 mM poly(E4Y1); 3 mM ATP; and 60 mM MgCl2 and 2 mM MnCl2 in 200 mM Hepes, pH 7.5. Assays were initiated with 5 to 40 nM of enzyme. Ki values were determined by measuring enzyme activity in the presence of varying concentrations of test compounds. The data were analyzed using Enzyme Kinetic and Kaleidagraph software.

Data set [2] addresses T2, phosphorylated VEGF-R2Δ50 (FLVK-P) (Homo sapiens, UniProt P35968, DEL940-989/E990V).
T2 construct: VEGF-R2Δ50 contains residues 806-939 and 990-1171; made in house; host or cells: baculovirus/insect cells
The data set can be described thus: VEGF-R2 coupled spectrophotometric assay, phosphorylated construct (FLVK-P). Format: biochemical. In a few lines:
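Baculovirus-expressed VEGF-R2Δ50 (residues 806-939/990-1171, E990V), optionally autophosphorylated; ADP formation coupled via PK/LDH to NADH oxidation at 340 nm, pH 7.5 Hepes. FLVK-P: 1 mM ATP, 5.1 mM poly(E4Y1), 25 mM MgCl2; FLVK: 3 mM ATP, 20 mM poly(E4Y1), 60 mM MgCl2, 2 mM MnCl2. Ki from activity over compound concentrations.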

For data set [3], the system named is lung cancer cells (line MV522). The data set can be described thus: Cancer cell proliferation (MV522) assay (MTT). Format: cell-based. As to conditions: MV522. In a few lines: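 Proliferation was read by MTT reduction 72 h after compound addition, in a 4-day protocol with no starvation step. Two thousand MV522 cells were seeded in RPMI1640 with 10% FBS and 2 mM glutamine and given 1 day to attach before dosing.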

Data set [4] deals with human umbilical vein endothelial cells (HUVEC). The data set can be described thus: HUVEC proliferation assay (VEGF-stimulated, MTT). Type of data set: cell-based. The note with it: Homo sapiens, HUVEC. In a few lines: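 Exponentially growing HUVEC (passage 3-4) were serum-starved 24 h in F12K + 1% FBS, given test compound (final DMSO 0.1%), then stimulated 1 h later with VEGF at 6 ng/ml final. Proliferation read after 72 h by 4 h MTT dye reduction, absorbance at 595.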

Where [5] appears, read: with albumin, read-out: Huvec + Albumin IC50.

T1 sequence (P06239 223-509 P223M/C224D): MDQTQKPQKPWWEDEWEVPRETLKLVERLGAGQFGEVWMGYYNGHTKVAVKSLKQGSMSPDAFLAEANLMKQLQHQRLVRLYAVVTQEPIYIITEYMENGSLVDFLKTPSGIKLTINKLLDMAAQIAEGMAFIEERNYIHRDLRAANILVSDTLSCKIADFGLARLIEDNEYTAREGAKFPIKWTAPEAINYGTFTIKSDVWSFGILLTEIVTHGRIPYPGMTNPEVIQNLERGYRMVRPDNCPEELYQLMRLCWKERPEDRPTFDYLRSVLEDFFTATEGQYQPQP
T2 sequence (P35968 with tags, fused parts or gaps DEL940-989/E990V limits assumed): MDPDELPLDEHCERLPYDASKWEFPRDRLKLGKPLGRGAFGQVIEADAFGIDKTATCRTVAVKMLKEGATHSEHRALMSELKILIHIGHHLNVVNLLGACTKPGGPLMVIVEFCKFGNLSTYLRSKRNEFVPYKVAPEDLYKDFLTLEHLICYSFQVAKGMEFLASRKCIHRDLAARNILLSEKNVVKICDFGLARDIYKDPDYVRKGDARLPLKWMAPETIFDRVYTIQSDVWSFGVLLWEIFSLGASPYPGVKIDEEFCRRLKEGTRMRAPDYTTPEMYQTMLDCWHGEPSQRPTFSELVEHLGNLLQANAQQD

One may read the pKi as −log10 of the Ki, conventionally taken in molar units. Broadly, the pIC50 is the IC50 on a negative log10 scale, so that one unit is a factor of ten. As for `CC(=O)Nc1ccc(COc2cccc(C(=O)Nc3ccc4nc(C)ccc4c3)c2)cn1` [Example N-1, 3-(6-Acetylaminopyridin-3-yl)methoxy-N-(2-methyl-quinolin-6-yl)-benzamide], the pKi was 6.80 in data set [1] and 8.43 in data set [2]. For the same compound, the negative-log IC50 (pIC50) in data set [3] is less than 5.00; in data set [4] (read-out: HUVEC IC50), 7.42; in data set [4] (setting [5]), less than 6.00.
With `Cc1cc(NC(=O)c2ccc(F)c(OCc3cncc4ccccc34)c2)ccc1C(C)C` [Example K-10, N-(4-Isopropyl-3-methyl-phenyl)-4-fluoro-3-(Isoquinolin-4-yl)methoxy-benzamide], the pKi in data set [1] is 7.24; in data set [2], 8.66. Further, the values for the pIC50 in data set [3] and in data set [4] (read-out: HUVEC IC50) were 5.34 and 7.92, respectively.
As a reminder, the inhibition is the share of the control response that was lost under treatment. As usually defined, the melting point is the temperature of the solid-liquid transition. With `Cc1ccc2cc(NC(=O)c3cccc(SCc4cc(Nc5ccccc5)n[nH]4)c3)ccc2n1` [Example E-1, N-(2-methyl-quinolin-6-yl)-3-[{5-(phenylamino)-2-H-pyrazol-3-yl}methylsulfanyl]benzamide], the melting point lay in the range of 172 to 174 °C. Also, the inhibition at 5 µM in data set [1] (@ 5 μM, read-out: LCK-P percent inhibition) was 85%. The compound also gave a pKi in data set [2] of 8.66. The compound further gave a pIC50 in data set [3] of less than 5.00. Further, the negative logarithm of the IC50 (pIC50) in data set [4] (read-out: HUVEC IC50) is 6.77. Also, the pIC50 in data set [4] (setting [5]) is less than 6.00.
With `O=C(Nc1ccc(N2CCCC2)c(C(F)(F)F)c1)c1cccc(CCc2cc(Nc3cccnc3)n[nH]2)c1` [Example G-11], the pKi in data set [1] is 8.60; in data set [2] it was 9.77. For the same compound, the pIC50 in data set [3] was 5.25; in data set [4] (read-out: HUVEC IC50), 8.36; in data set [4] (setting [5]) it was 7.19.
